Test results as given in the supplement of paper PMC10307832.

Key:
Experiment in all cases: relative viability (nuclei count vs DMSO), 5 days (fraction); higher = more cells survive
NCI-H2170 = test system: NCI-H2170
Summary of the method: (§1)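 Lung cancer cell lines were seeded in 1536-well plates and dosed by pin tool the next day, with either a single drug or a fixed anchor-drug dose combined with five library-drug doses (not always all listed) spaced in √10 steps. Five days later, one step fixed the cells and stained their nuclei (final 0.05% Triton X-100, 1% formaldehyde, 1 ug/ml Hoechst), and nuclei were counted on 4× images. Relative viability is the nuclei count in treated wells divided by the count in vehicle wells, and each value is the median of duplicate plates.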

NCI-H1944 = test system: NCI-H1944
Summary of the method: as §1

HCC-78 = test system: HCC-78
Summary of the method: as §1

NCI-H2347 = test system: NCI-H2347
Summary of the method: as §1

SW 900 = test system: SW 900
Summary of the method: as §1

PC-14 = test system: PC-14
Summary of the method: as §1

HCC-366 = test system: HCC-366
Summary of the method: as §1

NCI-H650 = test system: NCI-H650
Summary of the method: as §1

NCI-H2228 = test system: NCI-H2228
Summary of the method: as §1

NCI-H727 = test system: NCI-H727
Summary of the method: as §1

RERF-LC-KJ = test system: RERF-LC-KJ
Summary of the method: as §1

NCI-H1650 = test system: NCI-H1650
Summary of the method: as §1

NCI-H1915 = test system: NCI-H1915
Summary of the method: as §1

BEN = test system: BEN
Summary of the method: as §1

EMC-BAC-2 = test system: EMC-BAC-2
Summary of the method: as §1

NCI-H2085 = test system: NCI-H2085
Summary of the method: as §1

NCI-H2087 = test system: NCI-H2087
Summary of the method: as §1

NCI-H1666 = test system: NCI-H1666
Summary of the method: as §1

LC-2-ad = test system: LC-2-ad
Summary of the method: as §1

LXF-289 = test system: LXF-289
Summary of the method: as §1

NCI-H1993 = test system: NCI-H1993
Summary of the method: as §1

NCI-H358 = test system: NCI-H358
Summary of the method: as §1

Nc1cccc2c1CN(C1CCC(=O)NC1=O)C2=O (stereo not drawn) [Lenalidomide] + CC(=O)Nc1cccc(-n2c(=O)n(C3CC3)c(=O)c3c(Nc4ccc(I)cc4F)n(C)c(=O)c(C)c32)c1 [Trametinib] (partner 0.02 µM)
relative viability (NCI-H2170; first compound 0.253 µM): 0.933 | relative viability (NCI-H2170; first compound 0.8 µM): 0.886 | relative viability (NCI-H2170; first compound 2.53 µM): 0.954 | relative viability (NCI-H2170; first compound 8 µM): 0.823 | relative viability (NCI-H1944; first compound 0.253 µM): 0.385 | relative viability (NCI-H1944; first compound 2.53 µM): 0.427 | relative viability (NCI-H1944; first compound 8 µM): 0.395 | relative viability (HCC-78; first compound 0.253 µM): 0.728 | relative viability (HCC-78; first compound 0.8 µM): 0.633 | relative viability (HCC-78; first compound 2.53 µM): 0.692 | relative viability (HCC-78; first compound 8 µM): 0.822 | relative viability (NCI-H2347; first compound 0.253 µM): 0.329 | relative viability (NCI-H2347; first compound 0.8 µM): 0.279 | relative viability (NCI-H2347; first compound 2.53 µM): 0.323 | relative viability (NCI-H2347; first compound 8 µM): 0.179 | relative viability (SW 900; first compound 2.53 µM): 1 | relative viability (SW 900; first compound 8 µM): 0.76 | relative viability (PC-14; first compound 0.253 µM): 0.839 | relative viability (PC-14; first compound 0.8 µM): 0.722 | relative viability (PC-14; first compound 2.53 µM): 0.981 | relative viability (PC-14; first compound 8 µM): 0.779 | relative viability (HCC-366; first compound 0.253 µM): 0.33 | relative viability (HCC-366; first compound 0.8 µM): 0.353 | relative viability (HCC-366; first compound 2.53 µM): 0.386 | relative viability (HCC-366; first compound 8 µM): 0.264 | relative viability (NCI-H650; first compound 0.253 µM): 0.983 | relative viability (NCI-H650; first compound 0.8 µM): 1 | relative viability (NCI-H650; first compound 2.53 µM): 0.963 | relative viability (NCI-H650; first compound 8 µM): 0.891 | relative viability (NCI-H2228; first compound 0.253 µM): 0.629 | relative viability (NCI-H2228; first compound 0.8 µM): 0.315 | relative viability (NCI-H2228; first compound 2.53 µM): 0.695 | relative viability (NCI-H2228; first compound 8 µM): 0.363 | relative viability (NCI-H727; first compound 0.253 µM): 0.383 | relative viability (NCI-H727; first compound 0.8 µM): 0.378 | relative viability (NCI-H727; first compound 2.53 µM): 0.35 | relative viability (NCI-H727; first compound 8 µM): 0.376 | relative viability (RERF-LC-KJ; first compound 0.253 µM): 0.875 | relative viability (RERF-LC-KJ; first compound 0.8 µM): 0.886 | relative viability (RERF-LC-KJ; first compound 2.53 µM): 0.915 | relative viability (RERF-LC-KJ; first compound 8 µM): 0.85 | relative viability (NCI-H1650; first compound 0.253 µM): 0.421 | relative viability (NCI-H1650; first compound 0.8 µM): 0.432 | relative viability (NCI-H1650; first compound 2.53 µM): 0.551 | relative viability (NCI-H1650; first compound 8 µM): 0.684 | relative viability (NCI-H1915; first compound 0.253 µM): 0.306 | relative viability (NCI-H1915; first compound 0.8 µM): 0.319 | relative viability (NCI-H1915; first compound 2.53 µM): 0.323 | relative viability (NCI-H1915; first compound 8 µM): 0.283 | relative viability (BEN; first compound 0.253 µM): 1.1 | relative viability (BEN; first compound 0.8 µM): 1.07 | relative viability (BEN; first compound 2.53 µM): 1.18 | relative viability (BEN; first compound 8 µM): 0.913 | relative viability (EMC-BAC-2; first compound 0.253 µM): 0.888 | relative viability (EMC-BAC-2; first compound 0.8 µM): 0.848 | relative viability (EMC-BAC-2; first compound 2.53 µM): 0.922 | relative viability (EMC-BAC-2; first compound 8 µM): 0.747 | relative viability (NCI-H2085; first compound 0.253 µM): 0.507 | relative viability (NCI-H2085; first compound 0.8 µM): 0.405 | relative viability (NCI-H2085; first compound 2.53 µM): 0.515 | relative viability (NCI-H2085; first compound 8 µM): 0.464 | relative viability (NCI-H2087; first compound 0.253 µM): 0.191 | relative viability (NCI-H2087; first compound 2.53 µM): 0.28 | relative viability (NCI-H2087; first compound 8 µM): 0.186 | relative viability (NCI-H1666; first compound 0.253 µM): 0.859 | relative viability (NCI-H1666; first compound 0.8 µM): 0.765 | relative viability (NCI-H1666; first compound 2.53 µM): 0.93 | relative viability (NCI-H1666; first compound 8 µM): 0.784 | relative viability (LC-2-ad; first compound 0.253 µM): 0.868 | relative viability (LC-2-ad; first compound 0.8 µM): 0.943 | relative viability (LC-2-ad; first compound 2.53 µM): 0.972 | relative viability (LC-2-ad; first compound 8 µM): 0.968 | relative viability (LXF-289; first compound 0.253 µM): 0.661 | relative viability (LXF-289; first compound 0.8 µM): 0.604 | relative viability (LXF-289; first compound 2.53 µM): 0.671 | relative viability (LXF-289; first compound 8 µM): 0.691 | relative viability (NCI-H1993; first compound 0.253 µM): 0.491 | relative viability (NCI-H1993; first compound 0.8 µM): 0.503 | relative viability (NCI-H1993; first compound 2.53 µM): 0.474 | relative viability (NCI-H1993; first compound 8 µM): 0.518 | relative viability (NCI-H358; first compound 0.8 µM): 0.132 | relative viability (NCI-H358; first compound 2.53 µM): 0.133 | relative viability (NCI-H358; first compound 8 µM): 0.19
